The subject of this data set is skin of human volunteers. Briefly: Human Repeat Insult Patch Test (HRIPT), skin irritation and sensitization. The settings on record: positive control, study of Example 28, 51 subjects completing. The data set is classed as in vivo. From the text: Prior to utilizing in-vivo efficacy testing, however, it must first be determined that application of the product onto the skin of human volunteers will not cause them to experience an allergic reaction or some form of painful irritation. This is done by performing what is known as a Human Repeat Insult Patch Test (HRIPT). This is an internationally recognized test used to determine the potential for irritation, sensitization, and allergic reaction potential of a product. In view of the growing number of exotic ingredients used in skin care formulations, coupled with the increasingly complex and sophisticated chemical composition of the formulas, the risk of individuals experiencing irritation and allergic reactions because of their use has increased substantially. […] Any allergic reactions experienced by the test subject will be observed, recorded, and evaluated by a dermatologist to confirm, or not, the safety of the product. […]
Each HRIPT included about 50 subjects. In addition to demographic data collected for each subject, a Fitzpatrick Skin Type was also determined. […]
This procedure was repeated until a series of 9 consecutive, 24-hour exposures had been made 3 times a week for three 3 consecutive weeks. Prior to each reapplication, the test sites evaluated by trained laboratory personnel. […]

In the case of `CCCCCCCCCCCCOS(=O)(=O)[O-].[Na+]` [2.0% Sodium Lauryl Sulfate Solution, Sodium Lauryl Sulfate], the “number of subjects with a Grade 1 reaction in HRIPT” value was 4 subjects and the “number of subjects with a Grade 3 reaction in HRIPT” value is reported as “one”.
